Source: the supplement of paper PMC10307832

Legend:
Test in all cases: relative viability (nuclei count vs DMSO), 5 days (fraction); higher = more cells survive
DM3189 + Bortezomib = compound: C1CN(CCN1)C2=CC=C(C=C2)C3=CN4C(=C(C=N4)C5=CC=NC6=CC=CC=C56)N=C3 [DM3189] + CC(C)C[C@H](NC(=O)[C@H](Cc1ccccc1)NC(=O)c1cnccn1)B(O)O [Bortezomib] (partner 0.002 µM)
How it was run: (§1)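 Relative viability equals treated-well nuclei counts divided by vehicle-well nuclei counts. Counts came from 4× images of lung cancer cell lines grown in 1536-well plates for 5 days after pin-tool dosing on the day after seeding. Dosing used one drug alone or a fixed anchor-drug dose plus five library-drug doses (not always all listed) in √10 steps, and values are medians of duplicate plates.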

DM3189 + Linsitinib = compound: C1CN(CCN1)C2=CC=C(C=C2)C3=CN4C(=C(C=N4)C5=CC=NC6=CC=CC=C56)N=C3 [DM3189] + C[C@]1(O)C[C@@H](c2nc(-c3ccc4ccc(-c5ccccc5)nc4c3)c3c(N)nccn32)C1 [Linsitinib] (partner 1 µM)
How it was run: as §1

DM3189 + Phenformin = compound: C1CN(CCN1)C2=CC=C(C=C2)C3=CN4C(=C(C=N4)C5=CC=NC6=CC=CC=C56)N=C3 [DM3189] + N=C(N)NC(=N)NCCc1ccccc1 [Phenformin] (partner 250 µM)
How it was run: as §1

DM3189 + AZD7762 = compound: C1CN(CCN1)C2=CC=C(C=C2)C3=CN4C(=C(C=N4)C5=CC=NC6=CC=CC=C56)N=C3 [DM3189] + NC(=O)Nc1cc(-c2cccc(F)c2)sc1C(=O)N[C@H]1CCCNC1 [AZD7762] (partner 0.2 µM)
How it was run: as §1

DM3189 + Decitabine = compound: C1CN(CCN1)C2=CC=C(C=C2)C3=CN4C(=C(C=N4)C5=CC=NC6=CC=CC=C56)N=C3 [DM3189] + Nc1ncn([C@H]2C[C@H](O)[C@@H](CO)O2)c(=O)n1 [Decitabine] (partner 2 µM)
How it was run: as §1

Row | Cell Line | relative viability (DM3189 + Bortezomib; first compound 0.08 µM) | relative viability (DM3189 + Bortezomib; first compound 0.253 µM) | relative viability (DM3189 + Bortezomib; first compound 0.8 µM) | relative viability (DM3189 + Bortezomib; first compound 2.53 µM) | relative viability (DM3189 + Linsitinib; first compound 0.08 µM) | relative viability (DM3189 + Linsitinib; first compound 0.253 µM) | relative viability (DM3189 + Linsitinib; first compound 0.8 µM) | relative viability (DM3189 + Linsitinib; first compound 2.53 µM) | relative viability (DM3189 + Phenformin; first compound 0.08 µM) | relative viability (DM3189 + Phenformin; first compound 0.253 µM) | relative viability (DM3189 + Phenformin; first compound 2.53 µM) | relative viability (DM3189 + AZD7762; first compound 0.08 µM) | relative viability (DM3189 + AZD7762; first compound 0.253 µM) | relative viability (DM3189 + AZD7762; first compound 0.8 µM) | relative viability (DM3189 + AZD7762; first compound 2.53 µM) | relative viability (DM3189 + Decitabine; first compound 0.08 µM) | relative viability (DM3189 + Decitabine; first compound 0.253 µM) | relative viability (DM3189 + Decitabine; first compound 0.8 µM) | relative viability (DM3189 + Decitabine; first compound 2.53 µM) | relative viability (DM3189 + Phenformin; first compound 0.8 µM)
1 | HCC-366 | 1.12 | 0.99 | 0.931 | 1.06 | 0.641 | 0.538 | 0.55 | 0.649 | 0.531 | 0.611 | 0.605 | 0.293 | 0.267 | 0.197 | 0.241 | 0.396 | 0.293 | 0.269 | 0.341 | 
2 | HCC-827 | 1.12 | 0.958 | 0.985 | 1.06 | 0.982 | 0.863 | 0.888 | 0.938 | 0.443 | 0.444 | 0.431 | 0.207 | 0.194 | 0.205 | 0.195 | 0.34 | 0.311 | 0.324 | 0.296 | 0.441
3 | IA-LM | 1.28 | 0.935 | 1.37 | 0.956 | 0.699 | 0.682 | 0.51 | 0.901 |  |  |  |  |  |  |  |  |  |  |  | 
4 | LK-2 |  |  |  |  | 0.406 | 0.321 | 0.447 | 0.189 | 0.29 | 0.26 | 0.237 | 0.252 | 0.153 | 0.225 | 0.219 | 0.307 | 0.278 | 0.201 | 0.187 | 0.228
5 | NCI-H358 |  |  |  |  | 0.766 | 0.646 | 0.71 | 0.584 | 0.453 | 0.311 | 0.269 | 0.5 | 0.502 | 0.517 | 0.444 | 0.226 | 0.191 | 0.217 | 0.194 | 0.323
6 | NCI-H520 | 0.503 | 0.345 | 0.429 | 0.368 | 0.995 | 0.863 | 0.706 | 0.554 | 0.577 | 0.309 | 0.366 |  |  |  |  | 0.534 | 0.399 | 0.521 | 0.336 | 0.324
7 | NCI-H522 |  |  |  |  |  |  |  |  | 0.675 | 0.591 | 0.617 | 0.949 | 0.775 | 0.648 | 0.704 | 0.592 | 0.652 | 0.667 | 0.636 | 0.592
8 | NCI-H661 | 0.931 | 0.997 | 1.06 | 1.14 | 0.606 | 0.675 | 0.734 | 0.747 | 0.268 | 0.271 | 0.281 |  |  |  |  | 0.673 | 0.519 | 0.576 | 0.673 | 0.268
9 | NCI-H1395 |  |  |  |  | 0.979 | 1.05 | 0.695 | 1.03 | 0.465 | 0.431 | 0.442 | 0.385 | 0.396 |  | 0.39 | 0.663 | 0.703 |  | 0.712 | 0.456
10 | NCI-H1650 | 0.248 | 0.163 | 0.228 | 0.189 |  |  |  |  | 0.5 | 0.347 | 0.354 |  |  |  |  | 0.367 | 0.462 | 0.366 | 0.425 | 0.387
11 | NCI-H1793 |  |  |  |  | 1.09 | 0.997 | 0.937 | 1.21 | 0.397 | 0.412 | 0.344 | 0.524 | 0.519 | 0.273 | 0.347 | 0.55 | 0.458 | 0.461 | 0.541 | 0.415
12 | NCI-H1944 |  |  |  |  | 1.26 | 1.19 |  | 1.21 | 0.237 | 0.192 | 0.192 | 0.547 | 0.55 | 0.576 | 0.446 | 0.42 | 0.467 | 0.384 | 0.455 | 
13 | NCI-H2009 | 1.24 | 1.04 | 0.782 | 0.984 | 1.24 | 1.21 | 1.11 | 1.29 | 0.526 | 0.471 | 0.445 |  |  |  |  | 0.416 | 0.354 | 0.412 | 0.417 | 0.438
14 | NCI-H2023 | 1.12 | 0.961 | 0.823 | 0.514 | 0.683 | 0.694 | 0.496 | 0.667 | 0.368 | 0.363 | 0.347 |  |  |  |  | 0.229 | 0.225 | 0.205 | 0.201 | 0.428
15 | NCI-H2170 |  |  |  |  |  |  |  |  | 0.435 | 0.367 | 0.397 | 0.933 | 0.884 | 0.875 | 0.652 | 0.494 | 0.484 | 0.466 | 0.44 | 0.361
16 | NCI-H2228 | 1.19 | 1.12 | 0.847 | 0.659 | 0.68 | 0.763 | 0.572 | 0.66 | 0.368 | 0.344 | 0.189 |  |  |  |  |  |  |  |  | 0.29
17 | SK-LU-1 | 1.24 | 0.882 | 0.738 | 0.7 | 0.888 | 0.688 | 0.667 | 0.524 | 0.479 | 0.383 | 0.314 |  |  |  |  | 0.567 | 0.585 | 0.537 | 0.451 | 0.33
18 | SK-MES-1 |  |  |  |  | 1.11 | 0.981 | 0.97 | 0.944 | 0.679 | 0.62 | 0.662 |  |  |  |  | 0.461 | 0.418 | 0.317 | 0.361 | 0.587
19 | SW 900 |  |  |  |  |  |  |  |  | 0.599 | 0.465 | 0.568 | 0.574 |  | 0.515 | 0.645 | 0.467 |  | 0.424 | 0.407 | 0.535
20 | SW 1573 | 1.16 | 0.869 | 1 | 0.82 | 0.887 | 0.771 | 0.626 | 0.738 | 0.318 | 0.349 | 0.285 |  |  |  |  | 0.616 | 0.381 | 0.46 | 0.263 | 0.296
21 | UMC-11 | 0.863 | 0.635 | 0.769 | 0.397 | 1.09 | 0.986 | 1.03 | 0.959 | 0.348 | 0.321 | 0.356 |  |  |  |  | 0.616 | 0.506 | 0.602 | 0.511 | 0.349
